The values below are quoted from earlier work in patent US9302023B2, “Aldehyde gas deodorant and method for producing same” (TOAGOSEI CO., LTD., priority 2012, dated 2016).

The conditions of the first data set: stated as known; unsupported substance.
For `NNC(=O)CCCCC(=O)NN` [adipic dihydrazide], the “Mutagenicity of the substance itself” value is listed as “negative”.

For `NNC(=O)C(=O)NN` [oxalic dihydrazide], the “Mutagenicity of the substance itself” value is on record as “negative”.

`NNC(=O)NN` [carbohydrazide]: the “Mutagenicity of the substance itself” value is “negative”.

Consider `NNC(=O)CCC(=O)NN` [succinic dihydrazide], for which the “Mutagenicity of the substance itself” value is “weakly positive”.

`NN` [hydrazine]: the “Mutagenicity of the substance itself” value is “positive”.

Regarding `NN` [hydrated hydrazine], the “Mutagenicity of the substance itself” value is reported as “strongly positive”.

Staying with this data set, now noted: stated as known; unsupported substance; listed as Hydrazine.
Turning to `NN` [hydrazine], the “Mutagenicity of the substance itself” value was “highly positive”.
